From ChEMBL document CHEMBL4834435, “Discovery of Potent Coumarin-Based Kinetic Stabilizers of Amyloidogenic Immunoglobulin Light Chains Using Structure-Based Design” (J Med Chem, 2021)

Experiments:
[1] = molecular target: Immunoglobulin lambda variable 6-57 (Homo sapiens, UniProt P01721, F49Y/T46L); assay: Stabilization of AL patient derived fluorescein-labeled IGLV6-57 T46L/F49Y mutant measured after 24 hrs by proteolysis coupled-fluorescence polarization assay
[2] = molecular target: Immunoglobulin lambda variable 6-57 (Homo sapiens, UniProt P01721); assay: Stabilization of AL patient derived full length fluorescein-labeled IGLV6-57 expressed in Escherichia coli BL21 (DE3) measured after 24 hrs by proteolysis coupled-fluorescence polarization assay
[3] = Solubility of the compound; type: physicochemical
[4] = Protein binding in human plasma at 2 uM after 4 hrs by UPLC-MS/MS analysis; type: ADME, cell-free

Sequence of Immunoglobulin lambda variable 6-57 (Homo sapiens, UniProt P01721, F49Y/T46L) (P01721 whole entry, looked up, stated change not applied): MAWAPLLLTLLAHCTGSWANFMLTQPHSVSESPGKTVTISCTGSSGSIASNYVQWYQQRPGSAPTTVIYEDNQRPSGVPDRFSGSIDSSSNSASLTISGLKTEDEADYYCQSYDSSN
Sequence of Immunoglobulin lambda variable 6-57 (Homo sapiens, UniProt P01721) (P01721 whole entry): as the sequence (P01721 whole entry, looked up, stated change not applied) above

solubility [3] | Compound | EC50 [1] [nM] | EC50 [2] [nM] | PPB [4] [%]
– | CCN(CC)c1ccc2c(C)c(CCN3C(=O)NC4(CCN(C(=O)c5ccc[nH]c5=O)CC4)C3=O)c(=O)oc2c1 | 2700 | 3970 | –
– | C#CCN(CC)c1ccc2c(C)cc(=O)oc2c1 | – | 2650 | –
– | CCN(CC)c1ccc2c(C)c(CCN3C(=O)NC4(CCN(c5nccn6ccnc56)CC4)C3=O)c(=O)oc2c1 | 29.8 | 62.4 | –
– | CCN(CC)c1ccc2c(C)c(CCN3C(=O)NC4(CCN(c5ncnc6[nH]ncc56)CC4)C3=O)c(=O)oc2c1 | 124 | 103 | –
– | C#CCN(CC#C)c1ccc2c(C)cc(=O)oc2c1 | – | 2000 | –
– | CCN(CC)c1ccc2c(C)c(CCOC(=O)N(C)CCc3cccnc3)c(=O)oc2c1 | > 20000 | 5280 | –
– | Cc1c(CCN2CC3(CCN(c4nccn5ccnc45)CC3)NC2=O)c(=O)oc2cc(OCC(C)c3ccccc3)ccc12 (stereo in doubt; 84a) | 8.3 | 8.6 | –
– | CCN(CC)c1ccc2c(C)c(CCN3C(=O)NC4(CCN(S(=O)(=O)c5cccnc5)C4)C3=O)c(=O)oc2c1 (stereo not given) | 4370 | 313 | –
– | Cc1c(CCN2CC3(CCN(c4nccn5ccnc45)CC3)NC2=O)c(=O)oc2cc(OCC(C)c3ccccc3)ccc12 (stereo in doubt; 84b) | 3.9 | 11.5 | –
– | CCN(C)c1ccc2c(C)cc(=O)oc2c1 | – | 18000 | –
– | CCN(CC)c1ccc2c(C)c(CCN3CC4(CCN(c5ncccn5)CC4)NC3=O)c(=O)oc2c1 | 13.5 | 48.1 | –
– | Cc1cc(=O)oc2cc(OC(C)Cc3ccccc3)ccc12 (stereo not given) | 1380 | 2970 | –
Nd(Insoluble) | Cc1ccccc1C(C)Oc1ccc2c(C)cc(=O)oc2c1 (racemic) | – | – | –
– | CCN(CC)c1ccc2c(C)c(CCN3C(=O)NC4(CCN(c5nccn6ncnc56)CC4)C3=O)c(=O)oc2c1 | 55.2 | 71.1 | –
– | CCCN(CC)c1ccc2c(C)cc(=O)oc2c1 | – | 7890 | –
– | CCN(CC)c1ccc2c(C)c(CCN3C(=O)NC4(CCN(S(=O)(=O)c5ccccc5)C4)C3=O)c(=O)oc2c1 (stereo not given) | 648 | 207 | –
– | CCN(CC)c1ccc2c(C)c(CCN3C(=O)NC4(CCN(c5ncnc6[nH]cnc56)C4)C3=O)c(=O)oc2c1 (stereo not given) | 355 | 551 | –

solubility [3] | Compound | EC50 [1] [nM] | EC50 [2] [nM] | PPB [4] [%]
– | CCN(CC)c1ccc2c(C)c(CCN3C(=O)NC4(CCN(C(=O)c5ccc[nH]c5=O)C4)C3=O)c(=O)oc2c1 (stereo not given) | 3960 | – | –
– | CCN(CC)c1ccc2c(C)c(CCN3C(=O)NC4(CCN(c5ncccn5)C4)C3=O)c(=O)oc2c1 (stereo not given) | 688 | 1370 | –
– | CCN(CC)c1ccc2c(C)c(CCN3CC4(CCN(c5nccn6ccnc56)CC4)NC3=O)c(=O)oc2c1 | 4.9 | 35.6 | > 99.5
– | CCN(CC)c1ccc2c(C)c(CCOC(=O)NCc3cccc(NC(C)=O)c3)c(=O)oc2c1 | 194 | 289 | –
– | CCN(CC)c1ccc2c(C)c(CCN3C(=O)NC4(CCN(C(=O)c5c[nH]cn5)C4)C3=O)c(=O)oc2c1 (stereo not given) | 729 | 855 | –
– | CCN(CC)c1ccc2c(C)c(CCOC(=O)NCCc3cccnc3)c(=O)oc2c1 | 3680 | 1110 | –
– | CCN(CC)c1ccc2c(C)c(CCN3CC4(CCN(c5ncnc6[nH]ncc56)CC4)NC3=O)c(=O)oc2c1 | 4.7 | 8.8 | –
– | CCN(CC)c1ccc2c(C)c(CCOC(=O)NCc3cccc(-c4ccc[nH]c4=O)c3)c(=O)oc2c1 | 26.2 | 151 | –
– | CCN(c1ccc2c(C)cc(=O)oc2c1)C(C)C | – | 9700 | –
– | CCN(CC)c1ccc2c(C)c(CCOC(=O)NCc3ccccc3)c(=O)oc2c1 | 317 | 302 | –
– | CCN(CC)c1ccc2c(C)c(CCOC(=O)NCc3cncc(NC(C)=O)c3)c(=O)oc2c1 | 1170 | 816 | –
– | CCN(CC)c1ccc2c(C)c(CCN3C(=O)NC4(CCN(c5ncnc6[nH]cnc56)CC4)C3=O)c(=O)oc2c1 | 46 | 110 | –
– | Cc1cc(=O)oc2cc(OCC(C)c3ccccc3)ccc12 (stereo not given) | 444 | 558 | –
– | CCN(CC)c1ccc2c(C)c(CCOC(=O)NCC3CCCNC3)c(=O)oc2c1 (stereo not given) | 8800 | 1690 | –
– | CCN(CC)c1ccc2c(C)c(CCN3C(=O)NC4(CCN(c5ncccn5)CC4)C3=O)c(=O)oc2c1 | 165 | 292 | –
– | CCN(CC)c1ccc2c(C)c(CCOC(=O)NCc3cccc(C(N)=O)c3)c(=O)oc2c1 | 228 | 150 | –
